Where two headings read alike, the source gives them in different places.
Key:
[1] = system: Deroceras reticulatum slugs; experiment: Glasshouse study of slug feeding damage on growing pea plants; assay type: in vivo; conditions: 2nd day of test
Description: A suitable experimental design had to be substituted for this glasshouse study, based on the principles to show avoidance behaviour. This was also remarkably achieved on a five point scale to record slug behaviour, under a simple experimental procedure which lasted for only five days, to conclude this semi-field trial just by using the existing facilities alone at […] Housewares Ltd who manufactured their items for supermarket sale, provided plastic bowls in different colours to suit a random style experiment to show this current field study inside the glasshouse. Whifford Plastics Ltd produced fluon, a test chemical which had been used before to stop slugs from escaping the planned experiment in Cardiff University, was sold in litres sufficient to cover the sides of these plastic bowls by using only a simple paint brush. F. A Smith a soil merchant supplying for Cardiff University Horticultural services at Talybont, produced John Innes Potting compost No 2 commonly used in a nursery for growing peas, ideally because the sterilised soil with peat and grit added has a base fertiliser for quick germination. […] To keep the peas nice and damp and the slugs happy, the multipurpose peat based compost from the local B&Q store was adequate to support the trays of peas inside the plastic bowls which was 2⁄3 filled with this moist peat and the tray positioned so that the rim is flush with the surface of the peat. All the slugs used in this experiment were collected from the fields around Talybont, where they were actively seen to be searching for food lurking under the plants during the early hours of the morning at sunrise and pre-starved for a further 24 hours at 15° C., 80% RH, 12 hour light: dark regime, prior to testing inside the glasshouse. These were also the same species of slugs causing contamination during the routine operation in […] has a latin name Deroceras reticulatum, already well known for its physical damage to other crops under use in the UK. […]

[2] = system: Deroceras reticulatum slugs; experiment: Petri dish choice test (control and test sector) with test solutions made from commercial organic acids; assay type: in vivo; conditions: 24 hour period, n=10 replicates, laboratory
Protocol: Next, using the results obtained from Mass spectrometry to make up the test solutions with these organic acids, the behaviour of the slugs in the presence of beetle odours was now investigated. Initially this test was carried out inside the laboratory in the manner previously shown for pygidial secretions using a control and test sector to show the slug's choice overnight within a petri dish. […] However the results of all these tests still remains to be analysed and will appear in the PhD thesis only after using a computer software for image analysis.

[3] = cited from earlier work

Compound	Feeding damage by slugs on growing pea plants [1]	Avoidance of treated area (proportion of total area of petri dish covered by slug trails) [2]	Solubility in water ([3]; 20° C.)	Solubility in water ([3]; cold water)	Solubility in water ([3]; hot water)
CC(=O)O [Acetic Acid]	Concern				
O=CO [Formic Acid]		scare slugs stiff			
C=C(C)C(=O)O [Methacrylic Acid]	damage was effectively reduced		9.7 g/100 ml (20° C.)		
C/C=C(\C)C(=O)O [Tiglic Acid]	Concern			sparingly	soluble
